In patent US20170172994A1, “COMPOSITIONS AND METHODS FOR TREATING BACTERIAL INFECTIONS” (WOCKHARDT LIMITED, priority 2013, published 2017):
≈ marks a conversion by molar mass, not a printed value. Where two headings read alike, the source gives them in different places.

Key:
Pseudomonas PBP 3 = biological target: T1, Pseudomonas PBP 3 (Pseudomonas aeruginosa, UniProt G3XD46); assay: biochemical; type: binding
T1 construct: endogenous in cells
Protocol: The phrase “selective and high affinity PBP binder” refers to a PBP binder which binds to only one PBP with very high affinity. In general, the term “selective and high affinity PBP binder” also includes those binders where a substantial fraction of binder selectively binds to only one PBP with high affinity.
The reaction mixtures were then denatured with 20 μl each of SDS-denaturing solution at 100° C. for 3 min PBPs were separated through 10% SDS polyacrylamide gel electrophoresis (Bio-Rad Laboratories, Hercules, Calif.). The protein gels were rinsed in water immediately after electrophoresis.

P. mirabilis G 186 [1] = assay: Minimum filamentation / spheroplasting concentration; conditions: Proteus mirabilis, G186
Excerpt: (§7) The term “MSC” as used herein refers to minimum spheroplasting concentration, which is the minimum concentration of an antibacterial agent at which about 80% of bacterial cells covert into spheroplasts.
(§8) The term “MFC” as used herein refers to minimum filamentation concentration, which is the minimum concentration of an antibacterial agent at which about 80% of bacterial cells get elongated to form filament like structures.

Pseudomonas PBP 1A = biological target: T2, Pseudomonas PBP 1A (Pseudomonas aeruginosa, UniProt Q07806); assay: PBP binding assay (Bocillin FL competition)
T2 construct: endogenous in cells
Protocol: (§1) The phrase “selective and high affinity PBP binder” refers to a PBP binder which binds to only one PBP with very high affinity. In general, the term “selective and high affinity PBP binder” also includes those binders where a substantial fraction of binder selectively binds to only one PBP with high affinity. […]. The term “IC50 value” of a compound refers to the concentration of the compound that reduces the binding of Bocillin-FL to PBPs by 50% as compared to when no compound was added to the reaction.
(§2) A compound of Formula (III) was prepared using the procedure disclosed in PCT International Application No. PCT/IB2012/054290 and was evaluated for its PBP binding affinity profile. […] The reaction mixtures were then denatured with 20 μl each of SDS-denaturing solution at 100° C. for 3 min PBPs were separated through 10% SDS polyacrylamide gel electrophoresis (Bio-Rad Laboratories, Hercules, Calif.). The protein gels were rinsed in water immediately after electrophoresis. […] […].

Pseudomonas PBP 5/6 = Pseudomonas PBP 5/6 (Pseudomonas aeruginosa, UniProt G3XD74); assay: PBP binding assay (Bocillin FL competition)
Protocol: as §1, §2

P. mirabilis G 186 [2] = assay: MIC determination; type: cell-based; conditions: Proteus mirabilis, G186; P. mirabilis G 186 (NDM, TEM)
Protocol: (§3) In a typical procedure for determining MIC values, overnight grown bacterial cultures were diluted appropriately and inoculated on the agar media containing doubling concentrations of the test compounds. Observation for growth or no growth was performed after 16-20 hours of incubation at 35±2° C. in ambient air. The overall procedure was performed as per Clinical and Laboratory Standards Institute (CLSI) recommendations (Clinical and Laboratory Standards Institute (CLSI), Performance Standards for Antimicrobial Susceptibility Testing, 20th Informational Supplement, M 100-S20, Volume 30, No. 1, 2010).

K. pneumoniae B88 [3] = assay: MIC determination; type: cell-based; conditions: Klebsiella pneumoniae; K. pneumoniae B88 (NDM, SHV, TEM)
Protocol: as §3

[4] = tested on: MDR P. mirabilis G 186 producing NDM & TEM β-lactamases; assay: Time kill study at MFC and MSC; type: cell-based; conditions: for Bacterial count: Cefepime 8 mcg/ml (MFC), Compound of Formula (III) 0.25 mcg/ml (MSC), Imepenem 8 mcg/ml
Protocol: (§4) The synergistic killing effect of the combinations according to invention was studied by performing time kill studies. In a typical time kill study, the freshly grown cultures were diluted to the required cell density (initial starting inoculum) in Cation adjusted Muller Hinton broth medium (BD, USA). The antibacterial agents (either alone or in combination) at the required concentrations were added into the culture-containing medium. The samples were incubated under shaking condition (120 rpm) at 37° C. Enumeration of viable bacterial count was done every 2 hour by diluting in normal saline and plating on to the Tryptic Soya Agar plates (BD, USA). The plates were incubated for 24 hours to arrive at the viable bacterial count. The results are expressed in terms of Log CFU per ml. In general, the decrease of 1 Log CFU/ml, corresponds to 90% killing of bacteria. Similarly, 2 Log CFU/ml reductions indicates to 99% killing of bacteria and 3 Log CFU/ml reductions is equal to 99.9% killing of bacteria.

[5] = tested on: MDR Klebsiella pneumoniae B 88 producing NDM, SHV & TEM beta-lactamases; assay: Time kill study at MFC and MSC; type: cell-based; conditions: for Bacterial count: Cefepime 8 mcg/ml (MFC), Compound of Formula (III) 0.12 mcg/ml (MSC), Imepenem 8 mcg/ml
Protocol: as §4

K. pneumoniae B88 [6] = assay: Minimum filamentation / spheroplasting concentration; conditions: Klebsiella pneumoniae, B88
Excerpt: as §7, §8

[7] = tested on: Pseudomonas aeruginosa NCTC 13437 producing carbapenem hydrolyzing MBL (VIM 10) & Class A (VEB1); assay: Time kill study (viability count); type: cell-based; conditions: Cefepime 8 μg/ml, Compound of Formula (III) 8 μg/ml, Imipenem 16 μg/ml
Protocol: (§5) The antibacterial effectiveness of various antibacterial agents in presence of a compound of Formula (III) was investigated and the results are detailed below. In a typical study, overnight cultures in Trypticase soya broth (TSB) were brought to log phase by 1 in 10 dilution in fresh cation adjusted Mueller Hinton Broth (MHB) and incubation for 2.5 hours at 35° C. in orbital shaker. Log phase cultures were diluted to desired inoculums in flasks with MHB, containing various drug concentrations. Flasks were incubated at 35° C. in orbital shaker with rotational speed of 125 rpm. Viability count was determined by 1 in 10 serial dilutions of samples in normal saline and surface spreading of 10 μl of dilutions in duplicate on Trypticase soya agar plates. Plates were incubated for 24 hours at 35° C. and colonies were enumerated to determine the colony forming units (CFU) per ml volume.

[8] = tested on: Acinetobacter baumannii NCTC 13304 producing carbapenem hydrolyzing Class D OXA enzyme (OXA 27); assay: Time kill study (viability count); type: cell-based; conditions: Cefepime 8 μg/ml, Compound of Formula (III) 8 μg/ml, Imipenem 16 μg/ml
Protocol: as §5

E. coli ATCC 25922 = assay: Microbiological drug diffusion assay, standalone compounds in absence of beta-lactamase enzymes; type: cell-based; conditions: Escherichia coli, read-out: Inhibition zone diameter
Protocol: (§6) Next, the beta-lactamase stability of some of these compounds was evaluated. In a typical stability study, ESBL enzymes from K. pneumoniae S48 producing Metalo betalactamase (NDM4) and Class A (CTX-M, SHV, TEM) beta-lactamase were isolated from freshly grown culture by 5 repetitive cycles of freeze and thaw in liquid nitrogen. […] After the stipulated incubation duration, the test compounds were extracted from the reaction mixture by the addition of 0.5 ml of Acetonitrile in 1:1 ratio (final concentration of test compound—40 μg/ml) and centrifuged at 12000 rpm for 2 min to separate precipitated protein. The activity of test compounds was measured from the supernatant by performing microbiological drug diffusion assay. For drug diffusion assay, Muller-Hinton Agar (MHA) seeded with E. coli ATCC 25922 was poured on to a bioassay plate placed on a flat surface and allowed to solidify. Appropriate concentration of the standalone and enzyme treated test compound dilutions were added to 6 mm wells cut with the help of a borer. The antibacterial activity of the test compounds was measured in terms of zones of inhibition appearing after 18-24 hours of incubation at 37° C. Measurement of diameter of zone of inhibition was undertaken to the nearest whole value with the help of ruler.

[9] = tested on: ESBL enzymes from K. pneumoniae S48 producing Metalo betalactamase (NDM4) and Class A (CTX-M, SHV, TEM) beta-lactamase; assay: Beta-lactamase stability study (crude enzyme extract, then drug diffusion assay on E. coli ATCC 25922); type: biochemical; conditions: for Inhibition zone diameter after treatment with beta-lactamase enzyme: 40 μg/ml, zone on E. coli ATCC 25922
Protocol: as §6

K pneumoniae J 104 = assay: MIC determination (agar dilution, CLSI); type: cell-based; conditions: K pneumoniae J 104 (TEM1, SHV11, CTX-M, OMP); standalone
Protocol: as §3

K pneumoniae J 102 = assay: MIC determination (agar dilution, CLSI); type: cell-based; conditions: K pneumoniae J 102 (TEM1, SHV5, OMP); standalone
Protocol: as §3

K pneumoniae J 105 = assay: MIC determination (agar dilution, CLSI); type: cell-based; conditions: K pneumoniae J 105 (TEM1, SHV2, CTX-M, OMP); standalone
Protocol: as §3

K pneumoniae J 101 = assay: MIC determination (agar dilution, CLSI); type: cell-based; conditions: K pneumoniae J 101 (TEM1, SHV12, OMP); standalone
Protocol: as §3

T2 sequence (Q07806 whole entry): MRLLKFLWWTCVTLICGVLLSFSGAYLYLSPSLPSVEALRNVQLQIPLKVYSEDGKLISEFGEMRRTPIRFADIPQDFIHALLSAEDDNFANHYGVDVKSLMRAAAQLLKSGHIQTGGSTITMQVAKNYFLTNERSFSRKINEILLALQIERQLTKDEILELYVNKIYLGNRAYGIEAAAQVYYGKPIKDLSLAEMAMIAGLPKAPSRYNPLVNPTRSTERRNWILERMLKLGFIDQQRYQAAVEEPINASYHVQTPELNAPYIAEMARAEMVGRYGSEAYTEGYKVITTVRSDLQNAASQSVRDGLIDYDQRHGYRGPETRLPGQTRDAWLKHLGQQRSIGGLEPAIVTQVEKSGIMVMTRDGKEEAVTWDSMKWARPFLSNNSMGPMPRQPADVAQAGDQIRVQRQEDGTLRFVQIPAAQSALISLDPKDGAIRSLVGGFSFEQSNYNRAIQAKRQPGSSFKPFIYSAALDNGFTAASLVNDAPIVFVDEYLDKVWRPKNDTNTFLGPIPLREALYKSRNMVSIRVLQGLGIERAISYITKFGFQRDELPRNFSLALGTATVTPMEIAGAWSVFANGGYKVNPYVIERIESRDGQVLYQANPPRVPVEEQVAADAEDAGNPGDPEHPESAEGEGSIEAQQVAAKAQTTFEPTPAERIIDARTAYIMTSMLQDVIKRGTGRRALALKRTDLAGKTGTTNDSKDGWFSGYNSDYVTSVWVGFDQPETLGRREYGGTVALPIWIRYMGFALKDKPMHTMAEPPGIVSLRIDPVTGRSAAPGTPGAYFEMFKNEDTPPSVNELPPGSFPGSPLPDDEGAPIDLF
Sequence of Pseudomonas PBP 5/6 (G3XD74 entry or part of it): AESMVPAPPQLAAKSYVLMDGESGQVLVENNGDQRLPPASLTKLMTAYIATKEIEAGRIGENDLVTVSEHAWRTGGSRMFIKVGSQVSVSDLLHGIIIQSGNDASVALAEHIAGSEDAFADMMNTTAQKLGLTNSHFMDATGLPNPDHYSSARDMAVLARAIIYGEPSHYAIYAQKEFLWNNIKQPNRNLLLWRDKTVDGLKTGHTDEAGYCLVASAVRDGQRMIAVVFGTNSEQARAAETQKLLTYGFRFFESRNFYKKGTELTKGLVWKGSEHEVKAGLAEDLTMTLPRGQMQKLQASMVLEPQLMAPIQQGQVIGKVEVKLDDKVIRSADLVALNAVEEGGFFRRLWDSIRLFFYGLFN
T1 sequence (G3XD46 whole entry): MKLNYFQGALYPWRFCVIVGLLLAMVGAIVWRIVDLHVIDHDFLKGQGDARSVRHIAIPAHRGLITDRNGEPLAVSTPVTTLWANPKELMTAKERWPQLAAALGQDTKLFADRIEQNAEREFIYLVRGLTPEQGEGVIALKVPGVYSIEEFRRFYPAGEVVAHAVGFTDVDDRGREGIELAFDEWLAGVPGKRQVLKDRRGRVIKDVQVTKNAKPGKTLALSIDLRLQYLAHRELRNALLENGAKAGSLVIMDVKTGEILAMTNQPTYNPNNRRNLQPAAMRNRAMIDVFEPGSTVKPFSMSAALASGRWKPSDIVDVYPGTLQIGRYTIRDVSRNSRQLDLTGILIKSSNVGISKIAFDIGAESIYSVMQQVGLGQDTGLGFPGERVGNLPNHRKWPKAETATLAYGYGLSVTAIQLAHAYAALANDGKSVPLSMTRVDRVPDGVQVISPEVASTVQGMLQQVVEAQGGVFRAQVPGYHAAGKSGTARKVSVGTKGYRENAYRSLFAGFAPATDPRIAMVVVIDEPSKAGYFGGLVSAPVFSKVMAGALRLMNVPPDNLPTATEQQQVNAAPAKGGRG

CO/N=C(\C(=O)N[C@@H]1C(=O)N2C(C(=O)[O-])=C(C[N+]3(C)CCCC3)CS[C@H]12)c1csc(N)n1 [Cefepime]
IC50 (Pseudomonas PBP 3): 312 nM | MFC (P. mirabilis G 186 [1]): 8 µg/mL (≈ 16.6 µM) | IC50 (Pseudomonas PBP 1A; Pseudomonas PBP 1A, read-out: IC50 (converted)): 250 nM | IC50 (Pseudomonas PBP 5/6): > 8320 nM | MIC (P. mirabilis G 186 [2]): > 64 µg/mL | MIC (K. pneumoniae B88 [3]): > 64 µg/mL | Bacterial count ([4]; 0 hour): 6.58 Log10 CFU/ml | Bacterial count ([4]; 2 hours): 6.04 Log10 CFU/ml | Bacterial count ([4]; 4 hours): 7.93 Log10 CFU/ml | Bacterial count ([4]; 6 hours): 8.66 Log10 CFU/ml | Bacterial count ([4]; 8 hours): 8.85 Log10 CFU/ml | Antibacterial activity (in words) ([4]; P. mirabilis G 186, at MFC and MSC concentration, Table 14): did not exhibit antibacterial activity | Bacterial count ([5]; 0 hour): 6.14 Log10 CFU/ml | Bacterial count ([5]; 2 hours): 6.65 Log10 CFU/ml | Bacterial count ([5]; 4 hours): 8.30 Log10 CFU/ml | Bacterial count ([5]; 6 hours): 9.11 Log10 CFU/ml | Bacterial count ([5]; 8 hours): 9.04 Log10 CFU/ml | Antibacterial activity (in words) ([5]; Klebsiella pneumoniae B 88, at MFC and MSC concentration, Table 13): did not exhibit antibacterial activity | MFC (K. pneumoniae B88 [6]): 8 µg/mL (≈ 16.6 µM) | Bacterial count ([7]; 0 hour): 6.0 log (CFU/ml) | Bacterial count ([7]; 2 hours): 6.49 log (CFU/ml) | Bacterial count ([7]; 4 hours): 7.74 log (CFU/ml) | Bacterial count ([7]; 6 hours): 8.02 log (CFU/ml) | Bacterial count ([7]; 12 hours): 8.8 log (CFU/ml) | Bacterial count ([8]; 0 hour): 6.3 log (CFU/ml) | Bacterial count ([8]; 2 hours): 7.3 log (CFU/ml) | Bacterial count ([8]; 4 hours): 7.5 log (CFU/ml) | Bacterial count ([8]; 6 hours): 7.8 log (CFU/ml) | Bacterial count ([8]; 8 hours): 8.0 log (CFU/ml)

CC1(C)S[C@@H]2[C@H](/N=C/N3CCCCCC3)C(=O)N2[C@H]1C(=O)O [Mecillinam]
zone of inhibition at 40 µg/mL (E. coli ATCC 25922; ATCC25922, 0 h): 15.5 mm | zone of inhibition at 40 µg/mL (E. coli ATCC 25922; ATCC25922, 1 h): 15.5 mm | zone of inhibition at 40 µg/mL (E. coli ATCC 25922; ATCC25922, 2 h): 15.5 mm | zone of inhibition at 40 µg/mL (E. coli ATCC 25922; ATCC25922, 24 h): 15.5 mm | IC50 (Pseudomonas PBP 1A): > 12300 nM | IC50 (Pseudomonas PBP 5/6; read-out: IC50): > 12300 nM | Inhibition zone diameter after treatment with beta-lactamase enzyme ([9]; 0 hour incubation at 37° C.): 15.5 mm | Inhibition zone diameter after treatment with beta-lactamase enzyme ([9]; 1 hour incubation at 37° C.): 12 mm | Inhibition zone diameter after treatment with beta-lactamase enzyme ([9]; 2 hours incubation at 37° C.): 0 mm | Inhibition zone diameter after treatment with beta-lactamase enzyme ([9]; 24 hours incubation at 37° C.): 0 mm | Stability to beta-lactamase (in words) ([9]; carbapenem hydrolyzing metallo beta-lactamase, up to 24 hours): not stable to the beta-lactamase

C[C@@H](O)[C@H]1C(=O)N2C(C(=O)O)=C(S[C@@H]3CN[C@H](C(=O)N(C)C)C3)[C@H](C)[C@H]12 [Meropenem]
MIC (K pneumoniae J 104): 4 µg/mL (≈ 10.4 µM) | MIC (K pneumoniae J 102): 8 µg/mL (≈ 20.9 µM) | MIC (K pneumoniae J 105): 4 µg/mL (≈ 10.4 µM) | MIC (K pneumoniae J 101): 4 µg/mL (≈ 10.4 µM)
